According to the NIST ThermoML archive (doi:10.1007/s10765-007-0223-x):
Several values for one entry are separate records, joined by “and”; a condition that tells them apart may be missing. Equal values may be shown once. Numbers after ± are expanded uncertainties.

Assays:
[1] = 101 kPa, Liquid; for speed of sound: Single path-length method
[2] = xn = mol fraction of the nth substance listed; conditions: 101 kPa, Liquid, x2 = 0; for speed of sound: Single path-length method

CC(C)CC(C)(C)C [2,2,4-trimethylpentane]
mass density ([1]; 288.15 K): 695.948 ± 0.62 kg/m3
speed of sound ([1]; 288.15 K): 1124.3 ± 2.1 m/s
mass density ([1]; 290.65 K): 693.91 ± 0.63 kg/m3
speed of sound ([1]; 290.65 K): 1113.8 ± 2.1 m/s
mass density ([1]; 293.15 K): 691.861 ± 0.63 kg/m3
speed of sound ([1]; 293.15 K): 1103.3 ± 2.1 m/s
mass density ([1]; 295.65 K): 689.809 ± 0.63 kg/m3
speed of sound ([1]; 295.65 K): 1092.7 ± 2.1 m/s
mass density ([1]; 298.15 K): 687.749 ± 0.64 kg/m3
speed of sound ([1]; 298.15 K): 1082.2 ± 2.1 m/s
mass density ([1]; 300.65 K): 685.687 ± 0.64 kg/m3
speed of sound ([1]; 300.65 K): 1071.7 ± 2.1 m/s
mass density ([1]; 303.15 K): 683.618 ± 0.64 kg/m3
speed of sound ([1]; 303.15 K): 1061.3 ± 2.1 m/s
mass density ([1]; 305.65 K): 681.542 ± 0.65 kg/m3
speed of sound ([1]; 305.65 K): 1050.9 ± 2.1 m/s
mass density ([1]; 308.15 K): 679.459 ± 0.65 kg/m3
speed of sound ([1]; 308.15 K): 1040.5 ± 2.1 m/s
mass density ([1]; 310.65 K): 677.373 ± 0.65 kg/m3
speed of sound ([1]; 310.65 K): 1030.2 ± 2.1 m/s
mass density ([1]; 313.15 K): 675.278 ± 0.66 kg/m3
speed of sound ([1]; 313.15 K): 1019.9 ± 2.1 m/s
mass density ([1]; 315.65 K): 673.177 ± 0.66 kg/m3
speed of sound ([1]; 315.65 K): 1009.7 ± 2.1 m/s
mass density ([1]; 318.15 K): 671.069 ± 0.66 kg/m3
speed of sound ([1]; 318.15 K): 999.53 ± 2.1 m/s
mass density ([1]; 320.65 K): 668.954 ± 0.67 kg/m3
speed of sound ([1]; 320.65 K): 989.37 ± 2.1 m/s
mass density ([1]; 323.15 K): 666.832 ± 0.67 kg/m3
speed of sound ([1]; 323.15 K): 979.25 ± 2.1 m/s

CC(C)CC(C)(C)C [2,2,4-trimethylpentane] + COC(C)(C)C
speed of sound ([2]; 288.15 K): 1124.3 ± 2.1 m/s
mass density ([2]; 288.15 K): 695.948 ± 0.62 kg/m3
speed of sound ([2]; 290.65 K): 1113.8 ± 2.1 m/s
mass density ([2]; 290.65 K): 693.91 ± 0.63 kg/m3
speed of sound ([2]; 293.15 K): 1103.3 ± 2.1 m/s
mass density ([2]; 293.15 K): 691.861 ± 0.63 kg/m3
speed of sound ([2]; 295.65 K): 1092.7 ± 2.1 m/s
mass density ([2]; 295.65 K): 689.809 ± 0.63 kg/m3
speed of sound ([2]; 298.15 K): 1082.2 ± 2.1 m/s
mass density ([2]; 298.15 K): 687.749 ± 0.64 kg/m3
speed of sound ([2]; 300.65 K): 1071.7 ± 2.1 m/s
mass density ([2]; 300.65 K): 685.687 ± 0.64 kg/m3
speed of sound ([2]; 303.15 K): 1061.3 ± 2.1 m/s
mass density ([2]; 303.15 K): 683.618 ± 0.64 kg/m3
speed of sound ([2]; 305.65 K): 1050.9 ± 2.1 m/s
mass density ([2]; 305.65 K): 681.542 ± 0.65 kg/m3
speed of sound ([2]; 308.15 K): 1040.5 ± 2.1 m/s
mass density ([2]; 308.15 K): 679.459 ± 0.65 kg/m3
speed of sound ([2]; 310.65 K): 1030.2 ± 2.1 m/s
mass density ([2]; 310.65 K): 677.373 ± 0.65 kg/m3
speed of sound ([2]; 313.15 K): 1019.9 ± 2.1 m/s
mass density ([2]; 313.15 K): 675.278 ± 0.66 kg/m3
speed of sound ([2]; 315.65 K): 1009.7 ± 2.1 m/s
mass density ([2]; 315.65 K): 673.177 ± 0.66 kg/m3
speed of sound ([2]; 318.15 K): 999.53 ± 2.1 m/s
mass density ([2]; 318.15 K): 671.069 ± 0.66 kg/m3
speed of sound ([2]; 320.65 K): 989.37 ± 2.1 m/s
mass density ([2]; 320.65 K): 668.954 ± 0.67 kg/m3
speed of sound ([2]; 323.15 K): 979.25 ± 2.1 m/s
mass density ([2]; 323.15 K): 666.832 ± 0.67 kg/m3

COC(C)(C)C [2-methoxy-2-methylpropane]
mass density ([1]; 288.15 K): 744.861 ± 0.55 kg/m3
speed of sound ([1]; 288.15 K): 1083.4 ± 2.1 m/s and 1082.1 ± 2.1 m/s
mass density ([1]; 290.65 K): 742.259 ± 0.56 kg/m3
speed of sound ([1]; 290.65 K): 1071.6 ± 2.1 m/s and 1070.6 ± 2.1 m/s
mass density ([1]; 293.15 K): 739.654 ± 0.56 kg/m3
speed of sound ([1]; 293.15 K): 1060 ± 2.1 m/s and 1059.1 ± 2.1 m/s
mass density ([1]; 295.65 K): 737.036 ± 0.56 kg/m3
speed of sound ([1]; 295.65 K): 1048.5 ± 2.1 m/s and 1047.8 ± 2.1 m/s
mass density ([1]; 298.15 K): 734.406 ± 0.57 kg/m3
speed of sound ([1]; 298.15 K): 1036.9 ± 2.1 m/s and 1036.6 ± 2.1 m/s
mass density ([1]; 300.65 K): 731.766 ± 0.57 kg/m3
speed of sound ([1]; 300.65 K): 1025.4 ± 2.1 m/s
mass density ([1]; 301.65 K): 732.643 ± 0.57 kg/m3
speed of sound ([1]; 301.65 K): 1024.3 ± 2.2 m/s
mass density ([1]; 303.15 K): 729.112 ± 0.58 kg/m3 and 729.99 ± 0.57 kg/m3
speed of sound ([1]; 303.15 K): 1013.9 ± 2.1 m/s and 1014 ± 2.1 m/s and 1012.8 ± 2.1 m/s
mass density ([1]; 305.65 K): 727.325 ± 0.58 kg/m3 and 726.444 ± 0.58 kg/m3
speed of sound ([1]; 305.65 K): 1002.4 ± 2.1 m/s and 1002.7 ± 2.1 m/s and 1001.4 ± 2.1 m/s
mass density ([1]; 308.15 K): 723.763 ± 0.58 kg/m3 and 724.645 ± 0.58 kg/m3
speed of sound ([1]; 308.15 K): 990.99 ± 2.1 m/s and 991.34 ± 2.1 m/s and 989.9 ± 2.1 m/s
mass density ([1]; 310.65 K): 721.069 ± 0.59 kg/m3 and 721.953 ± 0.59 kg/m3
speed of sound ([1]; 310.65 K): 979.62 ± 2.1 m/s and 980 ± 2.1 m/s and 978.47 ± 2.1 m/s
mass density ([1]; 313.15 K): 718.357 ± 0.59 kg/m3 and 719.245 ± 0.59 kg/m3
speed of sound ([1]; 313.15 K): 968.16 ± 2.1 m/s and 968.63 ± 2.1 m/s and 967.03 ± 2.1 m/s
mass density ([1]; 315.65 K): 715.636 ± 0.6 kg/m3 and 716.525 ± 0.59 kg/m3
speed of sound ([1]; 315.65 K): 956.8 ± 2.1 m/s and 957.31 ± 2.1 m/s and 955.73 ± 2.1 m/s
mass density ([1]; 318.15 K): 712.897 ± 0.6 kg/m3 and 713.786 ± 0.6 kg/m3
speed of sound ([1]; 318.15 K): 945.54 ± 2.1 m/s and 946.03 ± 2.1 m/s and 944.34 ± 2.1 m/s
mass density ([1]; 320.65 K): 710.141 ± 0.6 kg/m3 and 711.028 ± 0.6 kg/m3
speed of sound ([1]; 320.65 K): 934.24 ± 2.1 m/s and 934.76 ± 2.1 m/s and 933.01 ± 2.1 m/s
mass density ([1]; 323.15 K): 707.381 ± 0.61 kg/m3 and 708.28 ± 0.61 kg/m3
speed of sound ([1]; 323.15 K): 922.97 ± 2.1 m/s and 923.46 ± 2.1 m/s and 921.93 ± 2.1 m/s
